Like-named read-outs stand apart in the source and are kept apart here.
Test system: iCell cardiomyocytes (human iPSC-derived cardiomyocytes)
Test: Intracellular Ca2+ flux / beating parameters in iCell cardiomyocytes (FLIPR tetra), 90 min or 24 h
Type: cell-based
Conditions: Homo sapiens, Cardiomyocyte, 0.00 µM = 100.00; for activity at 0.1 µM: 0.10 µM
Outline: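 PODs were defined as the concentration crossing one SD of the vehicle-control means (0.5% DMSO) on four-parameter logistic fits of Ca2+ trace metrics (peak height, frequency, peak-spacing CV, decay/rise ratio). Traces came from 100 s, 8 Hz FLIPR reads at 37 °C on calcium-dye-loaded iCell cardiomyocytes. Before reading, cells were treated for 90 min or 24 h from 5× chemical plates spanning 0.05–500 µM, in triplicate.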

[1] = 1.5 h, 90min, read-out: cm.amp.avg.90min
[2] = 1.5 h, 90min, read-out: cm.amp.cv.90min
[3] = 1.5 h, 90min, read-out: cm.bpm.90min
[4] = 1.5 h, 90min, read-out: cm.decay.rise.90min
[5] = 1.5 h, 90min, read-out: cm.spacing.cv.90min
[6] = 24 h, 24hrs, read-out: cm.amp.avg.24hrs
[7] = 24 h, 24hrs, read-out: cm.amp.cv.24hrs
[8] = 24 h, 24hrs, read-out: cm.bpm.24hrs
[9] = 24 h, 24hrs, read-out: cm.decay.rise.24hrs
[10] = 24 h, 24hrs, read-out: cm.spacing.cv.24hrs

Structure (SMILES): COc1cc(Cl)c(-c2cc(Cl)ccc2Cl)cc1Cl [4-OMe PCB52]
- activity at 0.01 µM [1]: 106%
- activity at 0.01 µM [2]: 122%
- activity at 0.01 µM [3]: 97.8%
- activity at 0.01 µM [4]: 97.5%
- activity at 0.01 µM [5]: 105%
- activity at 0.1 µM [1]: 106%
- activity at 0.1 µM [2]: 92.7%
- activity at 0.1 µM [3]: 102%
- activity at 0.1 µM [4]: 99.6%
- activity at 0.1 µM [5]: 88%
- activity at 1 µM [1]: 107%
- activity at 1 µM [2]: 113%
- activity at 1 µM [3]: 100%
- activity at 1 µM [4]: 97%
- activity at 1 µM [5]: 94.3%
- activity at 10 µM [1]: 83.3%
- activity at 10 µM [2]: 119%
- activity at 10 µM [3]: 120%
- activity at 10 µM [4]: 91.9%
- activity at 10 µM [5]: 108%
- activity at 100 µM [1]: 0%
- activity at 100 µM [2]: 0%
- activity at 100 µM [3]: 0%
- activity at 100 µM [4]: 0%
- activity at 100 µM [5]: 0%
- activity at 0.01 µM [6]: 89%
- activity at 0.01 µM [7]: 35.4%
- activity at 0.01 µM [8]: 54.4%
- activity at 0.01 µM [9]: 45.5%
- activity at 0.01 µM [10]: 56.2%
- activity at 0.1 µM [6]: 164%
- activity at 0.1 µM [7]: 69.5%
- activity at 0.1 µM [8]: 109%
- activity at 0.1 µM [9]: 100%
- activity at 0.1 µM [10]: 108%
- activity at 1 µM [6]: 166%
- activity at 1 µM [7]: 70.7%
- activity at 1 µM [8]: 95.5%
- activity at 1 µM [9]: 109%
- activity at 1 µM [10]: 102%
- activity at 10 µM [6]: 138%
- activity at 10 µM [7]: 81.2%
- activity at 10 µM [8]: 104%
- activity at 10 µM [9]: 107%
- activity at 10 µM [10]: 102%
- activity at 100 µM [6]: 0%
- activity at 100 µM [7]: 0%
- activity at 100 µM [8]: 0%
- activity at 100 µM [9]: 0%
- activity at 100 µM [10]: 0%
